Laboratory results reported in patent publication US12202835B2, “Substituted aromatic ring-linked dioxinoquinazolines and dioxinoquinolines as kinase inhibitors” (BEIJING SCITECH-MQ PHARMACEUTICALS LIMITED, priority 2018, dated 2025).

Assays:
[1] = target: TRKA kinase (Homo sapiens (Human), UniProt P04629); test: Assay of small molecular compounds for inhibiting the activity of TRKA kinase (LANCE TR-FRET); assay type: biochemical
Procedure, shortened: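 LANCE TR-FRET with ULight-TK peptide; compounds pre-incubated 5 min with TRKA (2× solution 2 nM), then substrate/ATP added (4× mix: 400 nM peptide, 40 μM ATP). Reaction 60 min at room temperature in dark, 1% DMSO final; stopped, detection developed 60 min, signal read.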

[2] = target: VEGFR-2 kinase (Homo sapiens (Human), UniProt P35968); test: Assay of small molecular compounds for inhibiting the activity of VEGFR-2 kinase (LANCE TR-FRET); assay type: biochemical; details: read-out: VEGFR2 IC50
Procedure, shortened: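 LANCE TR-FRET with human VEGFR-2 (2× stock 0.5 nM) preincubated 30 min with compound (final 2500 to 0.042 nM, 11-point 3-fold), then ULight-JAK-1 (Tyr1023) peptide/ATP added (4× stocks 200 nM/40 μM). Reaction 60 min room temperature, 4% DMSO; IC50 from inhibition-rate curve.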

[3] = test system: Ba/F3 LMNA-NTRK1 cells; test: Assay for inhibiting the proliferation of Ba/F3 LMNA-NTRK1 cells (CCK-8); assay type: cell-based; details: Mus musculus, BaF3
Procedure, shortened: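 Cells were seeded and cultured overnight, then treated with graded compound concentrations (final DMSO 0.25%) for 72 h. CCK-8 was added for 1–2 h at 37 °C and OD450 read. Survival was normalised to untreated and cell-free blank wells, and IC50 was fitted.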

Sequence of TRKA kinase (P04629 33-796): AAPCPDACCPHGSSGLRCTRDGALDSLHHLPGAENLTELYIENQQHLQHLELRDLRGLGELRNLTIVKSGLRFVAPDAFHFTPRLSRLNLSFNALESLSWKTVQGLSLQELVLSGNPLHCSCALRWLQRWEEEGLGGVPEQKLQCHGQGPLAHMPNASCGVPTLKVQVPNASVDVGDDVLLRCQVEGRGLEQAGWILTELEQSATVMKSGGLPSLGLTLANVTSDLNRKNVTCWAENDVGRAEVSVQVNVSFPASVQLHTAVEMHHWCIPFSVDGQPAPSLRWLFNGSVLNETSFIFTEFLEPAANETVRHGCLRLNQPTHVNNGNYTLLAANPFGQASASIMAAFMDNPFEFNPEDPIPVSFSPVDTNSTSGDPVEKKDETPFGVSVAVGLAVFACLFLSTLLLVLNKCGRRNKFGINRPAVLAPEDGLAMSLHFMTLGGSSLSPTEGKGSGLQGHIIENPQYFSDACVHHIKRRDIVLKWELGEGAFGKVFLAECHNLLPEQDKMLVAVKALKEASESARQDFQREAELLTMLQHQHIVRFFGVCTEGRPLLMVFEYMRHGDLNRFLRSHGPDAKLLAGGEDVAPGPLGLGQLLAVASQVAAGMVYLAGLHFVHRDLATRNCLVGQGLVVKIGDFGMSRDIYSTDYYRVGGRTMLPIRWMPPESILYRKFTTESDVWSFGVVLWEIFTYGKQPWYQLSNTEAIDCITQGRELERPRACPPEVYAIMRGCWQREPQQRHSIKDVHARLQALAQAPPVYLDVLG
Sequence of VEGFR-2 kinase (P35968 20-1356): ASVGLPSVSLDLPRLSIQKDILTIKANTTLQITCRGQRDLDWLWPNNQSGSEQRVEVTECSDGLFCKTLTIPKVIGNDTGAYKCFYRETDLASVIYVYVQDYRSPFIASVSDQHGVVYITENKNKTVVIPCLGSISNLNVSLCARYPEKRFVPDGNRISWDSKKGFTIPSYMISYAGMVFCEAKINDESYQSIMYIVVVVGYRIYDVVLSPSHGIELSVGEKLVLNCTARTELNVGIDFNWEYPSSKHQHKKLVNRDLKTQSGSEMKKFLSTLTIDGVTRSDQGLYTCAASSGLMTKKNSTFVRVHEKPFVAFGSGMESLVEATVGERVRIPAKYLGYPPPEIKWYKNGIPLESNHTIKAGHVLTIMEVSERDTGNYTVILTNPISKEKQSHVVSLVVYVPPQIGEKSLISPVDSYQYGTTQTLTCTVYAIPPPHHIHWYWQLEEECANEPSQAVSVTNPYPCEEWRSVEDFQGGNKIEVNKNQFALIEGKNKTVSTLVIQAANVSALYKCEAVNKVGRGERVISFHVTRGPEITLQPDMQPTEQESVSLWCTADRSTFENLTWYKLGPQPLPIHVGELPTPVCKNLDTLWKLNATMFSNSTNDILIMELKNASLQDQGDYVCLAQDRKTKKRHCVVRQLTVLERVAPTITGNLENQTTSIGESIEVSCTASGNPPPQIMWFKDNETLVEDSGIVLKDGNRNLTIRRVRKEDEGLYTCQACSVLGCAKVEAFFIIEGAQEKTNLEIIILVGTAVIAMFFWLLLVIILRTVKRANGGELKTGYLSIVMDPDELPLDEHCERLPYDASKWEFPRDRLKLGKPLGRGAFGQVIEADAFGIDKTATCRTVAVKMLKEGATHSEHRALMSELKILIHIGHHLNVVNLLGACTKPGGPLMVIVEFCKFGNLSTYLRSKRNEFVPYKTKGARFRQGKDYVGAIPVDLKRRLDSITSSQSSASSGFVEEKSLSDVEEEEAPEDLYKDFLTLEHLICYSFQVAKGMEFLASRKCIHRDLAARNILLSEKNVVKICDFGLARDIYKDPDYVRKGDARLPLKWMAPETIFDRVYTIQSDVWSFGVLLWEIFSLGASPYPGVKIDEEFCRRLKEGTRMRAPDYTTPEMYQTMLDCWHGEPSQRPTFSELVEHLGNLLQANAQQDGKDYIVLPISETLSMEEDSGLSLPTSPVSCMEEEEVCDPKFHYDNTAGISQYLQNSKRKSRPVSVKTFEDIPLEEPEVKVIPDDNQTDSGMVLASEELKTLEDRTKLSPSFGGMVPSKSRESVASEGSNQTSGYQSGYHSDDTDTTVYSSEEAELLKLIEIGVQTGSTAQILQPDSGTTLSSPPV

Compound | IC50 [1] | IC50 [2] | IC50 [3]
Cn1cc(C(=O)Nc2ccc(Oc3ccnc4cc(OCCCN5CCCCC5)c5c(c34)OCCO5)cc2Cl)c(=O)n(-c2ccc(F)cc2)c1=O [Example 137, N-(2-chloro-4-((5-((3-piperidin-1-yl)propoxy)-2,3-dihydro-[1,4]dioxino[2,3-f]quinolin-10-yl)oxy)phenyl)-3-(4-fluorophenyl)-1-methyl-2,4-dioxo-1,2,3,4-tetrahydropyrimidine-5-carboxamide] | < 0.05 µM | 0.05 to 0.5 µM | < 0.05 µM
COc1cc2nccc(Oc3ccc(NC(=O)c4cn(C)c(=O)n(-c5ccc(F)cc5)c4=O)cc3)c2c2c1OCCO2 [Example 145, N-(4-((5-methoxy-2,3-dihydro-[1,4]dioxino[2,3-f]quinolin-10-yl)oxy)phenyl)-3-(4-fluorophenyl)-1-methyl-2,4-dioxo-1,2,3,4-tetrahydropyrimidine-5-carboxamide] | < 0.05 µM | 0.5 to 5 µM | < 0.05 µM
COCCOc1cc2nccc(Oc3ccc(NC(=O)c4cn(C)c(=O)n(-c5ccc(F)cc5)c4=O)cc3)c2c2c1OCCO2 [Example 147, N-(4-((5-(2-methoxyethoxy)-2,3-dihydro-[1,4]dioxino[2,3-f]quinolin-10-yl)oxy)phenyl)-3-(4-fluorophenyl)-1-methyl-2,4-dioxo-1,2,3,4-tetrahydropyrimidine-5-carboxamide] | < 0.05 µM | 0.05 to 0.5 µM | < 0.05 µM
CCOc1cc2nccc(Oc3ccc(NC(=O)c4c(OCC)ccn(-c5ccc(F)cc5)c4=O)c(Cl)c3)c2c2c1OCCO2 [Example 130, N-(2-chloro-4-((5-ethoxy-2,3-dihydro-[1,4]dioxino[2,3-f]quinolin-10-yl)oxy)phenyl)-1-(4-fluorophenyl)-4-ethoxy-2-oxo-1,2-dihydropyridine-3-carboxamide] | < 0.05 µM | 0.05 to 0.5 µM | < 0.05 µM
Cn1cc(C(=O)Nc2ccc(Oc3ccnc4cc(OCC(C)(C)O)c5c(c34)OCCO5)cc2)c(=O)n(-c2ccc(F)cc2)c1=O [Example 149, N-(4-((5-(2-hydroxy-2-methylpropoxy)-2,3-dihydro-[1,4]dioxino[2,3-f]quinolin-10-yl)oxy)phenyl)-3-(4-fluorophenyl)-1-methyl-2,4-dioxo-1,2,3,4-tetrahydropyrimidine-5-carboxamide] | < 0.05 µM | 0.5 to 5 µM | < 0.05 µM
CCOc1cc2nccc(Oc3ccc(NC(=O)c4cn(C)c(=O)n(-c5ccc(F)cc5)c4=O)c(Cl)c3)c2c2c1OCCO2 [Example 129, N-(2-chloro-4-((5-ethoxy-2,3-dihydro-[1,4]dioxino[2,3-f]quinolin-10-yl)oxy)phenyl)-3-(4-fluorophenyl)-1-methyl-2,4-dioxo-1,2,3,4-tetrahydropyrimidine-5-carboxamide] | < 0.05 µM | 0.5 to 5 µM | < 0.05 µM
CCOc1ccn(-c2ccc(F)cc2)c(=O)c1C(=O)Nc1ccc(Oc2ccnc3cc(OCCCN4CCCCC4)c4c(c23)OCCO4)cc1Cl [Example 138, N-(2-chloro-4-((5-((3-piperidin-1-yl)propoxy)-2,3-dihydro-[1,4]dioxino[2,3-f]quinolin-10-yl)oxy)phenyl)-1-(4-fluorophenyl)-4-ethoxy-2-oxo-1,2-dihydropyridine-3-carboxamide] | < 0.05 µM | ≤ 0.05 µM | < 0.05 µM
COc1ccn(-c2ccc(F)cc2)c(=O)c1C(=O)Nc1ccc(Oc2ccnc3cc(OCC(C)(C)O)c4c(c23)OCCO4)cc1Cl [Example 140, N-(2-chloro-4-((5-(2-hydroxy-2-methylpropoxy)-2,3-dihydro-[1,4]dioxino[2,3-f]quinolin-10-yl)oxy)phenyl)-1-(4-fluorophenyl)-4-methoxy-2-oxo-1,2-dihydropyridine-3-carboxamide] | < 0.05 µM | 0.5 to 5 µM | < 0.05 µM
CC(C)n1cc(C(=O)Nc2ccc(Oc3ccnc4cc(OCCCN5CCOCC5)c5c(c34)OCCO5)c(Cl)c2)c(=O)n(-c2ccc(F)cc2)c1=O [Example 97, N-(3-chloro-4-((5-(3-morpholinopropoxy)-2,3-dihydro-[1,4]dioxino[2,3-f]quinolin-10-yl)oxy)phenyl)-3-(4-fluorophenyl)-1-isopropyl-2,4-dioxo-1,2,3,4-tetrahydropyrimidine-5-carboxamide] | < 0.05 µM | 0.5 to 5 µM | < 0.05 µM
O=C(Nc1ccc(Oc2ccnc3cc(OCCCN4CCOCC4)c4c(c23)OCCO4)cc1Cl)c1cccn(-c2ccc(F)cc2)c1=O [Example 143, N-(2-chloro-4-((5-(3-morpholinopropoxy)-2,3-dihydro-[1,4]dioxino[2,3-f]quinolin-10-yl)oxy)phenyl)-1-(4-fluorophenyl)-2-oxo-1,2-dihydropyridine-3-carboxamide] | < 0.05 µM | ≤ 0.05 µM | < 0.05 µM
CC(C)(O)COc1cc2nccc(Oc3ccc(NC(=O)c4cccn(-c5ccc(F)cc5)c4=O)c(Cl)c3)c2c2c1OCCO2 [Example 139, N-(2-chloro-4-((5-(2-hydroxy-2-methylpropoxy)-2,3-dihydro-[1,4]dioxino[2,3-f]quinolin-10-yl)oxy)phenyl)-1-(4-fluorophenyl)-2-oxo-1,2-dihydropyridine-3-carboxamide] | < 0.05 µM | 0.05 to 0.5 µM | < 0.05 µM
CCn1cc(C(=O)Nc2ccc(Oc3ccnc4cc(OCC(C)(C)O)c5c(c34)OCCO5)cc2)c(=O)n(-c2ccc(F)cc2)c1=O [Example 150, N-(4-((5-(2-hydroxy-2-methylpropoxy)-2,3-dihydro-[1,4]dioxino[2,3-f]quinolin-10-yl)oxy)phenyl)-3-(4-fluorophenyl)-1-ethyl-2,4-dioxo-1,2,3,4-tetrahydropyrimidine-5-carboxamide] | < 0.05 µM | 0.5 to 5 µM | < 0.05 µM
COc1cc2ncnc(Oc3ccc(NC(=O)c4cn(C)c(=O)n(-c5ccc(F)cc5)c4=O)cc3F)c2c2c1OCCO2 [Example 29, N-(3-fluoro-4-((5-methoxy-2,3-dihydro-[1,4]dioxino[2,3-f]quinazolin-10-yl)oxy)phenyl)-3-(4-fluorophenyl)-1-methyl-2,4-dioxo-1,2,3,4-tetrahydropyrimidine-5-carboxamide] | < 0.05 µM | 0.5 to 5 µM | < 0.05 µM
COc1cc2nccc(Oc3ccc(NC(=O)c4cn(C)c(=O)n(-c5ccc(F)cc5)c4=O)c(Cl)c3)c2c2c1OCCO2 [Example 125, N-(2-chloro-4-((5-methoxy-2,3-dihydro-[1,4]dioxino[2,3-f]quinolin-10-yl)oxy)phenyl)-3-(4-fluorophenyl)-1-methyl-2,4-dioxo-1,2,3,4-tetrahydropyrimidine-5-carboxamide] | < 0.05 µM |  | < 0.05 µM

Now from value to molecule:

IC50 [1] | IC50 [2] | IC50 [3] | Compound
< 0.05 µM | 0.5 to 5 µM | < 0.05 µM | Cn1cc(C(=O)Nc2ccc(Oc3ccnc4ccc5c(c34)OCCO5)cc2F)c(=O)n(-c2ccc(F)cc2)c1=O [Example 162, N-(4-((2,3-dihydro-[1,4]dioxino[2,3-f]quinolin-10-yl)oxy)-2-fluorophenyl)-3-(4-fluorophenyl)-1-methyl-2,4-dioxo-1,2,3,4-tetrahydropyrimidine-5-carboxamide]
< 0.05 µM | 0.5 to 5 µM | < 0.05 µM | COCCOc1cc2nccc(Oc3ccc(NC(=O)c4cn(C)c(=O)n(-c5ccc(F)cc5)c4=O)c(F)c3)c2c2c1OCCO2 [Example 155, N-(2-fluoro-4-((5-(2-methoxyethoxy)-2,3-dihydro-[1,4]dioxino[2,3-f]quinolin-10-yl)oxy)phenyl)-3-(4-fluorophenyl)-1-methyl-2,4-dioxo-1,2,3,4-tetrahydropyrimidine-5-carboxamide]
< 0.05 µM | > 5 µM |  | COc1ccn(-c2ccc(F)cc2)c(=O)c1C(=O)Nc1ccc(Oc2ccnc3ccc4c(c23)OCCO4)cc1F [Example 172, N-(4-((2,3-dihydro-[1,4]dioxino[2,3-f]quinolin-10-yl)oxy)-2-fluorophenyl)-1-(4-fluorophenyl)-4-methoxy-2-oxo-1,2-dihydropyridine-3-carboxamide]
< 0.05 µM | 0.5 to 5 µM | < 0.05 µM | CCn1cc(C(=O)Nc2ccc(Oc3ccnc4cc(OCCOC)c5c(c34)OCCO5)cc2F)c(=O)n(-c2ccc(F)cc2)c1=O [Example 156, N-(2-fluoro-4-((5-(2-methoxyethoxy)-2,3-dihydro-[1,4]dioxino[2,3-f]quinolin-10-yl)oxy)phenyl)-3-(4-fluorophenyl)-1-ethyl-2,4-dioxo-1,2,3,4-tetrahydropyrimidine-5-carboxamide]
< 0.05 µM | 0.05 to 0.5 µM |  | O=C(Nc1ccc(Oc2ccnc3ccc4c(c23)OCCO4)c(F)c1)c1cccn(-c2ccc(F)cc2)c1=O [Example 169, N-(4-((2,3-dihydro-[1,4]dioxino[2,3-f]quinolin-10-yl)oxy)-3-fluorophenyl)-1-(4-fluorophenyl)-2-oxo-1,2-dihydropyridine-3-carboxamide]
< 0.05 µM | 0.5 to 5 µM |  | O=C(Nc1ccc(Oc2ccnc3ccc4c(c23)OCCO4)cc1F)c1cccn(-c2ccc(F)cc2)c1=O [Example 170, N-(4-((2,3-dihydro-[1,4]dioxino[2,3-f]quinolin-10-yl)oxy)-2-fluorophenyl)-1-(4-fluorophenyl)-2-oxo-1,2-dihydropyridine-3-carboxamide]
< 0.05 µM | 0.5 to 5 µM |  | CCOc1ccn(-c2ccc(F)cc2)c(=O)c1C(=O)Nc1ccc(Oc2ccnc3ccc4c(c23)OCCO4)cc1F [Example 171, N-(4-((2,3-dihydro-[1,4]dioxino[2,3-f]quinolin-10-yl)oxy)-2-fluorophenyl)-1-(4-fluorophenyl)-4-ethoxy-2-oxo-1,2-dihydropyridine-3-carboxamide]
